We go through two molecules from ChEMBL document CHEMBL4819132, “Discovery of novel tripeptide propylene oxide proteasome inhibitors for the treatment of multiple myeloma” (Bioorg Med Chem, 2021).

What all share (format): ADME, organism-based
Data set [1] can be described thus: Mean residence time in Sprague-Dawley rat at 1 mg/kg, iv measured by LC-MS/MS analysis. The conditions noted are these: in vivo.
A short description of data set [2]: Bioavailability in Sprague-Dawley rat at 10 mg/kg, ig measured by LC-MS/MS analysis. The conditions noted are these: in vivo, po.
Data set [3] in a line: Tmax in Sprague-Dawley rat at 1 mg/kg, iv measured by LC-MS/MS analysis. The conditions noted are these: in vivo.
Data set [4] in a line: AUClast in Sprague-Dawley rat at 1 mg/kg, iv measured by LC-MS/MS analysis. Set-up: dose 1 mg/kg. The conditions noted are these: in vivo.
Data set [5] can be described thus: Mean residence time in Sprague-Dawley rat at 10 mg/kg, ig measured by LC-MS/MS analysis. The settings on record: in vivo, po.
The nature of data set [6]: AUClast in Sprague-Dawley rat at 10 mg/kg, ig measured by LC-MS/MS analysis. Set-up: dose 10 mg/kg. The settings on record: in vivo, po.
Data set [7] in a line: Tmax in Sprague-Dawley rat at 10 mg/kg, ig measured by LC-MS/MS analysis. The settings on record: in vivo, po.

As a reminder, the MRT is the average time that molecules of a dose stay in the body. By bioavailability is commonly meant dose-corrected exposure relative to a reference, in per cent. A higher bioavailability goes with much systemic uptake. As a reminder, the Tmax is the time from dosing to the highest level. In the case of `COC[C@H](NC(=O)c1cc(C)on1)C(=O)NCC(=O)N[C@@H](Cc1ccccc1)C(=O)[C@@]1(C)CO1`, the values for the MRT in data set [1] and in data set [5] were 8.4 min and 36.6 min, respectively. Also, the bioavailability in data set [2] was 6.3%. Also, the values for the time to peak (Tmax) in data set [3] and in data set [7] were 4.8 min and 10.2 min, respectively. Besides, the AUClast in data set [4] came out at 72 ng·mL·h; in data set [6], 42 ng·mL·h.
On to `COC[C@H](NC(=O)c1cc(C)on1)C(=O)NCC(=O)N[C@@H](CC(C)C)C(=O)[C@@]1(C)CO1`, for which the MRT in data set [1] is 19.8 min; in data set [5], 51.6 min. In data set [2], the bioavailability was 13.5%. For the same molecule, the results for the Tmax in data set [3] and in data set [7] were 4.8 min and 13.2 min, respectively. The AUClast in data set [4] amounted to 107 ng·mL·h; in data set [6], 119 ng·mL·h.
